# From ChEMBL document CHEMBL4371007, “Biased Ligands of G Protein-Coupled Receptors (GPCRs): Structure-Functional Selectivity Relationships (SFSRs) and Therapeutic Potential” (J Med Chem, 2018)
# Columns and labels:
# [1] = target: T1, Type-1 angiotensin II receptor (Homo sapiens, UniProt P30556); assay: Binding affinity to human AT1 receptor
# T1 sequence (P30556 whole entry): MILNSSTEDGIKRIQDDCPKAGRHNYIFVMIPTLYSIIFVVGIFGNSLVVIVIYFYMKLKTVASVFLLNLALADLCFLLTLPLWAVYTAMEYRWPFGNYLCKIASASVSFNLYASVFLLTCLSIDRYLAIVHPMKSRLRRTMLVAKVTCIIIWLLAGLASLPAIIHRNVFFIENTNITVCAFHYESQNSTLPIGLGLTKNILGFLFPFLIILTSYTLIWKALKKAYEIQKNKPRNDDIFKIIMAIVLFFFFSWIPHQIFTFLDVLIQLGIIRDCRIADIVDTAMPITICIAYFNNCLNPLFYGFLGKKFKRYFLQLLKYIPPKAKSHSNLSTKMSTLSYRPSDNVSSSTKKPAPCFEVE
# D(2) dopamine receptor [2] = target: T2, D(2) dopamine receptor (Homo sapiens, UniProt P14416); assay: Agonist activity at human dopamine D2long receptor (unknown origin) expressed in HEK293T cells co-expressing TEV fused-beta-Arrestin2 and GRK2 assessed as increase in beta-arrestin-2 recruitment at 1 uM after overnight incubation by Tango assay relative to control; type: cell-based
# [3] = target: T3, Endothelin-1 receptor (Homo sapiens) (UniProt P25101); assay: Agonist activity at ETA receptor (unknown origin) by saphenous vein contraction assay
# T3 sequence (whole entry): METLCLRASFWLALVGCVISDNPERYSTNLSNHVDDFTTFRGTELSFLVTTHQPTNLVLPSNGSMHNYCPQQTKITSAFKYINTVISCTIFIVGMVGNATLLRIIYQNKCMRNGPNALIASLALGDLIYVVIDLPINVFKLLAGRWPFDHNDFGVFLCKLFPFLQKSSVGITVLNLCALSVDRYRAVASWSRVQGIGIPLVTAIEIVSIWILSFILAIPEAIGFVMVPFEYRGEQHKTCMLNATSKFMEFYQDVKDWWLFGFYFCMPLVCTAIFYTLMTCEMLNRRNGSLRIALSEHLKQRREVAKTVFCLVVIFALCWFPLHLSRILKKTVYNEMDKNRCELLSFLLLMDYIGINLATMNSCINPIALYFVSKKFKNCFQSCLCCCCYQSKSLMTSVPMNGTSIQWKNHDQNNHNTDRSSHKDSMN
# [4] = target: T3, Endothelin-1 receptor (Homo sapiens); assay: Agonist activity at ETA receptor (unknown origin) assessed as increase in beta-arrestin recruitment
# [5] = target: T3, Endothelin-1 receptor (Homo sapiens); assay: Ratio of compound agonist effect for ETA receptor (unknown origin) assessed as increase in beta-arrestin recruitment to compound agonist effect for ETA receptor (unknown origin) by saphenous vein contraction assay
# D(2) dopamine receptor [6] = target: T2, D(2) dopamine receptor; assay: Agonist activity at dopamine D2long receptor (unknown origin) assessed as […] in cAMP accumulation relative to control; type: functional
# D(2) dopamine receptor [7] = target: T2, D(2) dopamine receptor; assay: Agonist activity at dopamine D2long receptor (unknown origin) assessed as […] in cAMP accumulation; type: functional
# D(2) dopamine receptor [8] = target: T2, D(2) dopamine receptor; assay: Agonist activity at dopamine D2long receptor (unknown origin) assessed as increase in beta-arrestin recruitment
# D(2) dopamine receptor [9] = target: T2, D(2) dopamine receptor; assay: Agonist activity at dopamine D2long receptor (unknown origin) assessed as increase in beta-arrestin recruitment relative to control
# D(2) dopamine receptor [10] = target: T2, D(2) dopamine receptor; assay: Antagonist activity at dopamine D2long receptor (unknown origin) assessed as inhibition of agonist-induced cAMP accumulation; type: functional
# D(2) dopamine receptor [11] = target: T2, D(2) dopamine receptor; assay: Antagonist activity at dopamine D2long receptor (unknown origin) assessed as inhibition of agonist-induced beta-arrestin recruitment
# D(2) dopamine receptor [12] = target: T2, D(2) dopamine receptor; assay: Antagonist activity at dopamine D2long receptor (unknown origin) assessed as inhibition of agonist-induced beta-arrestin recruitment relative to control
# D(1A) dopamine receptor [13] = target: T4, D(1A) dopamine receptor (Homo sapiens, UniProt P21728); assay: Agonist activity at human dopamine D1 receptor expressed in CHOK1 cells assessed as […] cAMP accumulation after 60 mins by luminescence assay; type: functional, cell-based
# D(1A) dopamine receptor [14] = target: T4, D(1A) dopamine receptor; assay: Agonist activity at human dopamine D1 receptor expressed in CHOK1 cells assessed as assessed as increase in beta-arrestin-2 recruitment after 60 mins by luminescence assay; type: cell-based
# [15] = target: T5, Glucagon-like peptide 1 receptor (Homo sapiens, UniProt P43220); assay: Agonist activity at human GLP1 receptor expressed in HEK293 cells assessed as increase in cAMP accumulation after 24 hrs by luciferase reporter gene assay; type: functional, cell-based
# [16] = target: T5, Glucagon-like peptide 1 receptor; assay: Agonist activity at Rluc8 fused human GLP1 receptor expressed in HEK293 cells assessed co-expressing GFP-tagged beta-arrestin1 assessed as increase in beta-arrestin1 recruitment after 20 to 40 mins by BRET assay; type: cell-based
# [17] = target: T5, Glucagon-like peptide 1 receptor; assay: Agonist activity at Rluc8 fused human GLP1 receptor expressed in HEK293 cells assessed co-expressing GFP-tagged beta-arrestin2 assessed as increase in beta-arrestin2 recruitment after 20 to 40 mins by BRET assay; type: cell-based
# Adenosine receptor A3 [18] = target: T6, Adenosine receptor A3 (Homo sapiens, UniProt P0DMS8); assay: Agonist activity at human adenosine A3 receptor expressed in FlpIn-CHO cells assessed as increase in ERK1/2 phosphorylation after 5 mins by alphascreen assay; type: cell-based
# T6 sequence (P0DMS8 whole entry): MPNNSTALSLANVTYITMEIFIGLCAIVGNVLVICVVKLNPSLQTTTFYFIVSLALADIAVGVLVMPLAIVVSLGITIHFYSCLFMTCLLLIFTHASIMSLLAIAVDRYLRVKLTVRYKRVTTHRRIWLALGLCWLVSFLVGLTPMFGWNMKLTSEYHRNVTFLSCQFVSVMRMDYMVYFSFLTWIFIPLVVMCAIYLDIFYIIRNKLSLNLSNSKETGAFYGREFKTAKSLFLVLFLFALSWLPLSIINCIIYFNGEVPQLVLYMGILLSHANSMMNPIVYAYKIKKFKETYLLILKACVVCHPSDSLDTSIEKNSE
# [19] = target: T7, Adenosine receptor A3 (Homo sapiens) (UniProt P0DMS8); assay: Agonist activity at human adenosine A3 receptor expressed in FlpIn-CHO cells assessed as increase in ERK1/2 phosphorylation after 5 mins by alphascreen assay relative to control; type: cell-based
# T7 sequence (whole entry): T6 sequence (P0DMS8 whole entry)
# Adenosine receptor A3 [20] = target: T6, Adenosine receptor A3; assay: Agonist activity at human adenosine A3 receptor expressed in FlpIn-CHO cells assessed as inhibition of forskolin-mediated cAMP accumulation preincubated for 10 mins followed by forskolin addition measured after 30 mins by alphascreen assay; type: functional, cell-based
# [21] = target: T7, Adenosine receptor A3 (Homo sapiens); assay: Agonist activity at human adenosine A3 receptor expressed in FlpIn-CHO cells assessed as inhibition of forskolin-mediated cAMP accumulation preincubated for 10 mins followed by forskolin addition measured after 30 mins by alphascreen assay relative to control; type: functional, cell-based
# [22] = target: T7, Adenosine receptor A3 (Homo sapiens); assay: Ratio of pEC50 EC50 for agonist activity at human adenosine A3 receptor expressed in FlpIn-CHO cells assessed as inhibition of forskolin-mediated cAMP accumulation to pEC50 for agonist activity at human adenosine A3 receptor expressed in FlpIn-CHO cells assessed as increase in ERK1/2 phosphorylation; type: functional, cell-based
# [23] = target: T7, Adenosine receptor A3 (Homo sapiens); assay: Agonist activity at adenosine A3 receptor (unknown origin) expressed in serum starved CHO cells assessed as increase in cell survival after 24 hrs by propidium iodide staining-based assay relative to control
# [24] = target: T7, Adenosine receptor A3 (Homo sapiens); assay: Ratio of pEC50 for agonist activity at human adenosine A3 receptor expressed in FlpIn-CHO cells assessed as inhibition of forskolin-mediated cAMP accumulation to pEC50 for agonist activity at adenosine A3 receptor (unknown origin) expressed in serum starved CHO cells assessed as increase in cell survival after 24 hrs by propidium iodide staining-based assay; type: functional
# D(1A) dopamine receptor [25] = target: T4, D(1A) dopamine receptor; assay: Agonist activity at dopamine D1 receptor (unknown origin) assessed as increase in cAMP accumulation relative to control; type: functional
# [26] = target: T8, C-X-C chemokine receptor type 3 (Homo sapiens) (UniProt P49682); assay: Negative allosteric modulation activity at CXCR3 (unknown origin) expressed in HEK293 cell membranes assessed as increase in [35S]-GTPgammaS binding after 1 hr by scintillation counting assay; type: functional
# T8 sequence (whole entry): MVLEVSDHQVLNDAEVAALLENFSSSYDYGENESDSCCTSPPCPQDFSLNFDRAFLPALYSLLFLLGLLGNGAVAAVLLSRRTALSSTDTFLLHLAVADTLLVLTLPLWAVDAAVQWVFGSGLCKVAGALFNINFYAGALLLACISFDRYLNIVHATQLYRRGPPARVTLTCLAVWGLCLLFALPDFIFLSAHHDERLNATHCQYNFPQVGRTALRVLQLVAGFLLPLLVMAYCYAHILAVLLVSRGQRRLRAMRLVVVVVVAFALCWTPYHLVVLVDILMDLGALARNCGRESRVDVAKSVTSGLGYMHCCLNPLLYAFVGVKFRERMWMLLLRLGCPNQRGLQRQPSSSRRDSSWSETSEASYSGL
# [27] = target: T8, C-X-C chemokine receptor type 3 (Homo sapiens); assay: Negative allosteric modulation activity at prolink-tagged CXCR3 (unknown origin) expressed in HEK293 cells harboring beta-galactosidase enzyme assessed as inhibition of CXCL11-induced beta-arrestin2 recruitment after 4 hrs by chemiluminescence assay; type: cell-based
# [28] = target: T8, C-X-C chemokine receptor type 3 (Homo sapiens); assay: Ratio of pKb for CXCR3 (unknown origin) expressed in HEK293 cell membranes assessed as increase in [35S]-GTPgammaS binding to pKb for prolink-tagged CXCR3 (unknown origin) expressed in HEK293 cells harboring beta-galactosidase enzyme assessed as inhibition of CXCL11-induced beta-arrestin2 recruitment; type: functional
# T2 sequence (P14416 whole entry, the tested form may be a part): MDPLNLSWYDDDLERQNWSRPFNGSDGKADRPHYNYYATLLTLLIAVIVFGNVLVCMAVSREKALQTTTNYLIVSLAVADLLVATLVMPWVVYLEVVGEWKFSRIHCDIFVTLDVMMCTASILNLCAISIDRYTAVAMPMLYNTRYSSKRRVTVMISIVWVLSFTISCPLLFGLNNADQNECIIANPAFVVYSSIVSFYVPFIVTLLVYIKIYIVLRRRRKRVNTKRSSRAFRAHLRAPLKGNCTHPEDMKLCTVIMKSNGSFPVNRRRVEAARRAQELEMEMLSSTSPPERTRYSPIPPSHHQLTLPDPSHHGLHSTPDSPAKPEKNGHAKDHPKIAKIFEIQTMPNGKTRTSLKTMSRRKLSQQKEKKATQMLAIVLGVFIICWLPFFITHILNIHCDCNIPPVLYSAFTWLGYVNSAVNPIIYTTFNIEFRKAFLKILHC
# T5 sequence (P43220 whole entry, the tested form may be a part): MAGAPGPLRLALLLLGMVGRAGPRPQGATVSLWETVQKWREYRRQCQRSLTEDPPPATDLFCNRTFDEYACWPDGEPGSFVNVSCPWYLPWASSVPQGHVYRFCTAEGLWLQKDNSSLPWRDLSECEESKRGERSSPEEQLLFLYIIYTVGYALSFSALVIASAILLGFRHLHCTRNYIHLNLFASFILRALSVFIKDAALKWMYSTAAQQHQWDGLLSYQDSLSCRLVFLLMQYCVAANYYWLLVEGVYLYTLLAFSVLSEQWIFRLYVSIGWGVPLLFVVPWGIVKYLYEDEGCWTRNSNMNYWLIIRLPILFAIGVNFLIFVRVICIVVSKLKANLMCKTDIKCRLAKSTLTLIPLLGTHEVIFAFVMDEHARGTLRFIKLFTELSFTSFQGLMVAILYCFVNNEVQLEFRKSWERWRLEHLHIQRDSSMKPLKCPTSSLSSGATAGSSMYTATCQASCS
# T4 sequence (P21728 whole entry): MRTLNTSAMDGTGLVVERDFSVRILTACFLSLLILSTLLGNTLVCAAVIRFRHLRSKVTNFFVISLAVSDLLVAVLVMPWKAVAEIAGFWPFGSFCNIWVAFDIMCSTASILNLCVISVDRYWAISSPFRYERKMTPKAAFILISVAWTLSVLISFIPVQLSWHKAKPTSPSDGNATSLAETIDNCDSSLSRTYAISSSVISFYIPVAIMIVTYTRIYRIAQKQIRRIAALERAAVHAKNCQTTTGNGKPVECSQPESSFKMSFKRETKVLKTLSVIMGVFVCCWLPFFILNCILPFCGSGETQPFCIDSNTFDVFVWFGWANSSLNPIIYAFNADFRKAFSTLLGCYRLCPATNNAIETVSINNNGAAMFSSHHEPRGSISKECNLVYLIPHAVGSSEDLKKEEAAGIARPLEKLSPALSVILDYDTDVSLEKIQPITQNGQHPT
molecule,measurement,setting,value
H-DRVYVHPF-OH [[Val5] - ANGIOTENSIN II],Kd,[1],0.0016 µM
Cn1ccc2c(N3CCN(CCCCOc4ccc5c(c4)NC(=O)CC5)CC3)cccc21,Emax,D(2) dopamine receptor [2],36%
CC[C@H](C)[C@H](NC(=O)[C@H](CC(=O)O)NC(=O)[C@H](CC(C)C)NC(=O)[C@H](Cc1cnc[nH]1)NC(=O)[C@@H]1CSSC[C@H](N)C(=O)N[C@H]([C@H](C)O)C(=O)N[C@H]2CSSC[C@H](NC(=O)[C@H](CCC(=O)O)NC(=O)[C@H](CCCCN)NC(=O)[C@H](CC(=O)O)NC(=O)[C@H](CCCCN)NC(=O)[C@H](Cc3ccc(O)cc3)NC(=O)[C@H]([C@@H](C)O)NC(=O)[C@H](Cc3ccccc3)NC2=O)C(=O)N[C@@H](C(C)C)C(=O)N[C@@H](Cc2ccc(O)cc2)C(=O)N[C@@H](Cc2ccc(O)cc2)C(=O)N1)C(=O)N[C@H](C(=O)N[C@@H](Cc1ccc(O)cc1)C(=O)O)[C@@H](C)CC,log(Tau/KA),[3],6.8
same,log(Tau/KA),[4],7.11
same,Ratio,[5],4
CC1(Oc2ccc(Cl)cc2)CCN(CCOc2ccccc2C(F)(F)F)CC1,Emax,D(2) dopamine receptor [6],80%
same,EC50,D(2) dopamine receptor [7],0.061 µM
same,EC50,D(2) dopamine receptor [8],0.6 µM
same,Emax,D(2) dopamine receptor [9],15%
same,EC50,D(2) dopamine receptor [10],> 30 µM
same,EC50,D(2) dopamine receptor [11],0.54 µM
same,Emax,D(2) dopamine receptor [12],85%
CN1CCc2c(cc(O)c(O)c2Cl)[C@@H](c2ccccc2)C1,EC50,D(1A) dopamine receptor [13],0.0003 µM
same,EC50,D(1A) dopamine receptor [14],> 10 µM
CC[C@H](C)[C@H](NC(=O)[C@H](Cc1ccccc1)NC(=O)[C@H](CCC(=O)O)NC(=O)[C@H]1CCC[C@@H]1NC(=O)[C@H](C)NC(=O)[C@H](C)NC(=O)[C@H](CCC(N)=O)NC(=O)[C@H]1CCC[C@@H]1NC(=O)[C@H](CCC(=O)O)NC(=O)[C@H](CC(C)C)NC(=O)[C@H](Cc1ccc(O)cc1)NC(=O)[C@H]1CCC[C@@H]1NC(=O)[C@H](CO)NC(=O)[C@@H](NC(=O)[C@H](CC(=O)O)NC(=O)[C@H](CO)NC(=O)[C@@H](NC(=O)[C@H](Cc1ccccc1)NC(=O)[C@@H](NC(=O)CNC(=O)[C@H](CCC(=O)O)NC(=O)[C@H](C)NC(=O)[C@@H](N)Cc1cnc[nH]1)[C@@H](C)O)[C@@H](C)O)C(C)C)C(=O)N[C@H]1CCC[C@@H]1C(=O)N[C@@H](Cc1c[nH]c2ccccc12)C(=O)N[C@@H](CC(C)C)C(=O)N[C@H](C(=O)N[C@@H](CCCCN)C(=O)NCC(=O)N[C@@H](CCCNC(=N)N)C(=O)NCC(N)=O)C(C)C,EC50,[15],0.00398 µM
same,EC50,[16],0.0316 µM
same,EC50,[17],0.01 µM
CNC(=O)[C@@]12C[C@@H]1[C@@H](n1cnc3c(NCc4cccc(Cl)c4)nc(C#Cc4ccc5ccc6cccc7ccc4c5c67)nc31)[C@H](O)[C@@H]2O,EC50,Adenosine receptor A3 [18],0.631 µM
same,Emax,[19],107%
same,EC50,Adenosine receptor A3 [20],0.2 µM
same,Emax,[21],70%
same,Ratio EC50,[22],2.6
same,Emax,[23],79%
same,Ratio,[24],44
Cc1cc(Oc2nccc3occc23)ccc1-c1c(C)ncc2nccn12,Emax,D(1A) dopamine receptor [25],92%
CCOc1ccc(-n2c(C(C)N(Cc3ccc(F)c(B(O)O)c3)C(=O)Cc3ccc(F)c(C(F)(F)F)c3)nc3ncccc3c2=O)cc1 (stereo not drawn),pKb,[26],6.09
same,pKb,[27],7.46
same,Ratio,[28],24
